Molecules are shown by their SMILES. Starred links: 1 amine or outer side, 2 acyl side, 3 side chain; linkers in the order of their positions; H or OH if unused. Non-standard residues stand in square brackets, D forms with d. Residues, ends and D or L forms follow the SMILES beside them. β3hPhe(2R-OH) = O=C([C@H](O)[C@H](Cc1ccccc1)N[*:1])[*:2]

Assay [1] concerns the target Human immunodeficiency virus type 1 protease (Human immunodeficiency virus 1, UniProt Q72874, V82A). Description: Inhibitory concentration against TL3-resistant HIV(V82A) mutant.
Assay [2] has as its target T1, Human immunodeficiency virus type 1 protease (Human immunodeficiency virus 1, UniProt Q72874, F53L). Kind of assay: Inhibitory concentration against TL3-resistant HIV(F53L) mutant protease. The following applies: pooled result: one value given for 5 cell lines, strains, targets or settings.
In assay [3] the target is T2, Human immunodeficiency virus type 1 protease (Human immunodeficiency virus 1, UniProt Q72874, G48V). Description: Inhibitory concentration against drug-resistant HIV(G48V) mutant protease.
Assay [4] addresses T3, Human immunodeficiency virus type 1 protease (Human immunodeficiency virus 1, UniProt Q72874). Kind of assay: Inhibitory concentration against human immunodeficiency virus (HIV) protease.
Assay [5] concerns Feline immunodeficiency virus. Kind of assay: Inhibitory concentration against Feline immunodeficiency virus (FIV) protease. The format is functional.
Assay [6] deals with T4, Human immunodeficiency virus type 1 protease (Human immunodeficiency virus 1, UniProt Q72874, V82F). Kind of assay: Inhibitory concentration against drug-resistant HIV(V82F) mutant protease.
The target in assay [7] is T3, Human immunodeficiency virus type 1 protease. Kind of assay: Inhibitory concentration against wild-type human immunodeficiency virus (HIV-WT) protease.
Assay [8] has as its system Feline immunodeficiency virus. Kind of assay: Inhibitory concentration against wild-type feline immunodeficiency virus (FIV-WT) protease at a concentration of 200 uM. The format is functional.
For assay [9], the system named is Feline immunodeficiency virus. Kind of assay: Inhibitory concentration against wild-type feline immunodeficiency virus (FIV-WT) protease. The format is functional.
Assay [10] has as its target T3, Human immunodeficiency virus type 1 protease. Kind of assay: Inhibitory concentration against TL3-resistant HIV(V771) mutant.
In assay [11] the target is T2, Human immunodeficiency virus type 1 protease. Kind of assay: Inhibitory concentration against drug-resistant HIV(G48V) mutant.
The target of assay [12] is T4, Human immunodeficiency virus type 1 protease. Kind of assay: Inhibitory concentration against drug-resistant HIV(V82F) mutant.
Assay [13] addresses T1, Human immunodeficiency virus type 1 protease. Kind of assay: Inhibitory concentration against TL3-resistant HIV(F53L) mutant.
The target of assay [14] is T3, Human immunodeficiency virus type 1 protease. Description: Inhibitory concentration against TL3-resistant HIV(M461) mutant.
The target of assay [15] is Human immunodeficiency virus type 1 protease (Human immunodeficiency virus 1, UniProt Q72874, L63P). Description: Inhibitory concentration against TL3-resistant HIV(L63P) mutant.
The target in assay [16] is T3, Human immunodeficiency virus type 1 protease. Description: Inhibitory concentration against TL3-resistant HIV(L241) mutant.

For the compound `CC(=O)N[C@@H](Cc1c[nH]c2ccccc12)C(=O)N[C@H](C(=O)N[C@@H](Cc1ccccc1)[C@@H](O)C(=O)N[C@H]1Cc2ccc(cc2)OCCCNC(=O)[C@H](C(C)C)NC1=O)C(C)C`, the half-maximal inhibitory concentration (IC50) (as a rule, the concentration that gives 50% inhibition) in assay [1] came out at 10 nM; in assay [2], 49 nM; in assay [3] it was 71 nM; in assay [4], 10 nM; in [5], 49 nM; in assay [6] it was 30 nM.
In assay [7], `COC(=O)[C@H](O)[C@H](Cc1ccccc1)NC(=O)[C@@H](NC(=O)[C@H](Cc1ccc(O)cc1)NC(C)=O)C(C)C` showed an IC50 of 71000 nM. Besides, in [8], the inhibition (usually the relative decrease from the control value, in per cent) at 200 µM was 32%.
In the case of `COC(=O)[C@H](O)[C@H](Cc1ccccc1)NC(=O)[C@@H](NC(=O)[C@H](Cc1ccccc1)NC(C)=O)C(C)C`, the IC50 in [7] was found to be 113000 nM. At 200 µM the inhibition in [8] was 24%.
`CC(C)[C@@H]1NC(=O)[C@@H](NC(=O)C(=O)C(Cc2ccccc2)NC(=O)OC(C)(C)C)Cc2ccc(cc2)OCCCNC1=O` (stereo partly specified): the results for the IC50 in assay [9] and in assay [7] were 4000 nM and 13 nM, respectively.
On to `CC(=O)N[C@@H](Cc1ccccc1)C(=O)N[C@H](C(=O)N[C@@H](Cc1ccccc1)[C@@H](O)C(=O)N[C@H]1Cc2ccc(cc2)OCCCNC(=O)[C@H](C(C)C)NC1=O)C(C)C`, for which the IC50 in assay [1] came out at 12 nM; in assay [2], 79 nM; in [3], 94 nM; in assay [4], 7 nM; in [5] it was 35 nM; in assay [6], 32 nM.
As to `COC(=O)[C@H](O)[C@H](Cc1ccccc1)NC(=O)[C@@H](NC(=O)[C@H](Cc1c[nH]c2ccccc12)NC(C)=O)C(C)C`, the half-maximal inhibitory concentration (IC50) in [9] is 66000 nM; in assay [7], 14000 nM.
Turning to `CC(C)[C@@H]1NC(=O)[C@@H](NC(=O)[C@@H](O)[C@H](Cc2ccccc2)NC(=O)OC(C)(C)C)Cc2ccc(cc2)OCCCNC1=O`, the figures for the half-inhibitory concentration (IC50) in assay [9] and in assay [7] were 46000 nM and 100 nM, respectively.
The compound `CC(C)[C@@H]1NC(=O)[C@@H](NC(=O)[C@H](O)[C@H](Cc2ccccc2)NC(=O)OC(C)(C)C)Cc2ccc(cc2)OCCCNC1=O` registered an IC50 in assay [7] of 630 nM. Testing at 200 µM in [8] gave an inhibition of 43%.
Turning to `CC(=O)N[C@@H](Cc1ccc(O)cc1)C(=O)N[C@H](C(=O)N[C@@H](Cc1ccccc1)[C@@H](O)C(=O)N[C@H]1Cc2ccc(cc2)OCCCNC(=O)[C@H](C(C)C)NC1=O)C(C)C`, the IC50 in assay [1] came out at 11 nM; in assay [10] it was 70 nM; in assay [4], 6 nM; in [11], 57 nM; in [12], 26 nM; in [5], 27 nM. The IC50 in assay [13], in [14], in assay [15] and in assay [16] was 70 nM throughout.
With `CC(=O)N[C@@H](Cc1ccc(O)cc1)C(=O)N[C@H](C(=O)N[C@@H](Cc1ccccc1)[C@@H](O)C(=O)N[C@@H](Cc1ccc(O)cc1)C(=O)N[C@H](C(N)=O)C(C)C)C(C)C` (Ac-YV[β3hPhe(2R-OH)]YV-NH2), the IC50 in assay [9] came to 560 nM; in assay [7] it was 212 nM.

(Values after ChEMBL document CHEMBL1133785, “Design, synthesis, and biological evaluation of HIV/FIV protease inhibitors incorporating a conformationally constrained macrocycle with a small P3' residue” (Bioorg Med Chem Lett, 2001).)
